Test results reported in patent publication US8058442B2 (Technion Research and Development Foundation Ltd., priority 2002, dated 2011).
Read-outs that look alike come from different tables or passages of the source.

Legend:
PC12 cells = experiment: Neuroprotection of PC12 cells against serum-deprivation induced apoptosis (MTT test); format: cell-based, rat; conditions: for number of survival cells (cell viability, % of cells cultured with serum): 0.1 μM chelator, serum-free medium, 24 h, serum-free control 38%
Protocol: Rat PC12 cells, originated from rat pheochromocytoma, were grown at 37° C., in a humid 5% CO2, 95% air environment, in a growth medium containing Dulbecco's modified Eagle's Medium (DMEM, GIBCO, BRL) supplemented with glucose (1 mg/1 ml), 5% fetal calf serum, 10% horse serum, and 1% of a mixture of streptomycin/penicillin. On confluence, the culture was removed and the cells were detached by vigorous washing, centrifuged at 200 g for 5 min and resuspended in DMEM with full serum content. 0.5×10^4 cells/well were placed in microtiter plates (96 wells) precoated with collagen (10 μg/cm^2 were allowed to attach for 24 h before treatment).
Twenty-four hours after attachment of the PC12 cells as described in (g), the medium was replaced with DMEM containing 0.1% BSA. The test compounds were added to the cells after 1 h of incubation. After 24 h incubation, the cells were subjected to MTT test as previously described (Gassen et al., 1998). The absorption was determined in a Perkin-Elmer Dual Wavelength Eliza-Reader at λ=570/650 nm after automatic subtraction of background readings. The results are expressed as percentage of the untreated control.
PC12 cells were grown in serum-free medium alone or in serum-free medium with different concentration of the chelators VK-28, M32, HLA20 and Rasagiline. After 24 h incubation, the cells were subjected to MTT test.
Cell viability was expressed as a percentage of cells cultured in medium supplemented with serum, which served as the control group and was designated as 100%. […] Experimental data are shown as mean±SD (r=6).

[1] = n-octanol/water shake-flask distribution coefficient; format: physicochemical
From the text: The partition coefficient (Pow) or the distribution ratio (Dow) between octanol and water are most commonly used measures of the hydrophobicity of compounds. Dow can depend on the concentration of solute, but at reasonably low concentrations. If the solute is in the same form in both phases, Dow becomes constant and is called the partition coefficient Pow. Pow plays an important role in determining the physico-chemical properties and the behaviour of numerous organic compounds in biological systems. Pow is applied to quantitative structure-activity relationship studies, and as a measure of hydrophobicity. All the partition measurements are carried out using a 1-octanol/water shake-flask procedure (Leo, A J. 1991, “Hydrophobic parameter: measurement and calculation”, Methods Enzymol. 202:544-91) or simply by the elution time of solute from HPLC column. Thereafter, the transport properties of the iron-complexes are examined in the water/lipid membrane system (liposomes), which mimics biomembranes much better than the octanol/water system (Breuer et al, 1995).
1-Octanol (Riedel-deHaën, synthesis grade (250-270 nm abs.<0.06) and glass distilled deionized water were used as the partitioning solutions. A Hewlett-Packard 8450A diode array spectrophotometer was used for the quantitative determination of the tested com-pounds in the standard solutions and in the partitioned solutions. The aqueous phase stock solutions were shaken with an excess of 1-octanol to presaturate them and were then allow-ed to stand overnight before use. The 1-octanol stock solutions were also presaturated with 10 mM NaOH and allowed to settle overnight. The experiments were performed in 10-ml stoppered centrifuge tubes. The tubes were inverted gently for 5 min and then, to assure complete phase separation, they were centrifuged for 20 min at 1,000-2,000 g. The aqueous and organic phases were removed separately and analyzed by UV spectrophotometry.
Lipophilicity plays an important role in drug absorption and distribution. The logarithm of the n-octanol/water distribution coefficients (logD) is the most commonly used measure of the lipophilicity of a drug candidate. Here we used an n-octanol/water shake-flask procedure to determine logD. […] In acidic and basic solution, all the test compounds have low log D values, which refer to a good hydrophilicity. This can be explained by the formation of oxinium chloride (in acid) and sodium oxinate (in base) derivatives.

Q: With `C#CCN1CCN(Cc2ccc(O)c3ncccc23)CC1` [HLA20, 5-(4-propargylpiperazin-1-ylmethyl)-8-hydroxyquinoline] as the compound, how does the “number of survival cells (cell viability, % of cells cultured with serum)” value (PC12 cells) read?
A: Its value is 65%.

Q: And the “change in the protection against PC12 cell death induced by serum withdrawal” value (PC12 cells; 1 or 10 μM, compared with 0.1 μM)?
A: The value was “no significant change in the protection”.

Q: What about the logD ([1]; H2O, read-out: LogD in H2O) of the same compound?
A: The logD was 1.57.

Q: What about the “D in 0.01N HCl” value ([1]; distribution ratio D = Corg/Caq, 0.01N HCl) of the same compound?
A: Its value is 0.025.

Q: And the “D in 0.01N NaOH” value ([1]; distribution ratio D = Corg/Caq, 0.01N NaOH)?
A: Its value is 0.70.

Q: What about the “D in H2O” value ([1]; distribution ratio D = Corg/Caq, H2O) of the same compound?
A: The value was 37.02.

Q: And the logD ([1]; pH 2, 0.01N HCl, read-out: LogD in 0.01N HCl)?
A: Its logD is -1.6.

Q: What about the logD ([1]; pH 12, 0.01N NaOH, read-out: LogD in 0.01N NaOH) of the same compound?
A: Its logD is -0.16.

Q: Which “number of survival cells (cell viability, % of cells cultured with serum)” value (PC12 cells) does the source give for `OCCN1CCN(Cc2ccc(O)c3ncccc23)CC1` [VK-28, 5-[4-(2-hydroxyethyl)piperazin-1-ylmethyl]-8-hydroxyquinoline, reference compound] here?
A: Its value is 80%.

Q: What about the “inhibitory activity against PC12 apoptosis induced by serum withdrawal” value (PC12 cells; 1 μM) of the same compound?
A: The value was “good inhibitory activity”.

Q: And the “PC12 cell death in serum-free medium (toxicity)” value (PC12 cells; 10 μM)?
A: The value was “about 75%”.
